Experimental data reported in article PMC12155096 (International Journal of Molecular Sciences, 2025).
Where a name gives a salt, the structure may show the parent alone. Read-outs that look alike come from different tables or passages of the source.

Legend:
[1] = target: Photinus pyralis (firefly) luciferase (Photinus pyralis, UniProt P08659); experiment: biochemical; format: biochemical
human CYP2D6 = human CYP2D6 (Homo sapiens, UniProt P10635)
human CYP2C19 = human CYP2C19 (Homo sapiens, UniProt P33261); experiment: biochemical
human CYP2C9 = human CYP2C9 (Homo sapiens, UniProt P11712); experiment: biochemical
CYP3A4 = CYP3A4 (Homo sapiens, UniProt P08684)
human CYP1A2 = target: T1, human CYP1A2 (Homo sapiens, UniProt P05177); experiment: biochemical
T1 sequence (P05177 1-516): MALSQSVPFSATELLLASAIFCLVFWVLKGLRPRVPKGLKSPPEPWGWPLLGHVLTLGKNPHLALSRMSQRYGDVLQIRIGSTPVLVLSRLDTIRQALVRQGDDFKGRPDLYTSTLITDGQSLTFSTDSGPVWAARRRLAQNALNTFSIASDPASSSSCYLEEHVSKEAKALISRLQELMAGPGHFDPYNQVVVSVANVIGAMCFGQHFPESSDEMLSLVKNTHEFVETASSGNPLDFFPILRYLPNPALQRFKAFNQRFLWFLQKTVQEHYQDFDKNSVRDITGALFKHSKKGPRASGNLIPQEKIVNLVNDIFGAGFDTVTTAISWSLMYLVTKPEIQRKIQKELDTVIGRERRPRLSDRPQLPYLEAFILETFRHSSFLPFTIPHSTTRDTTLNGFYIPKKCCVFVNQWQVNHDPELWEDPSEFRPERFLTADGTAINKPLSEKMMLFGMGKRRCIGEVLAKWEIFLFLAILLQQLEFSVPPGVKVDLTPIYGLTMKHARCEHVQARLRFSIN

Chain of human CYP2C19 (P33261 whole entry): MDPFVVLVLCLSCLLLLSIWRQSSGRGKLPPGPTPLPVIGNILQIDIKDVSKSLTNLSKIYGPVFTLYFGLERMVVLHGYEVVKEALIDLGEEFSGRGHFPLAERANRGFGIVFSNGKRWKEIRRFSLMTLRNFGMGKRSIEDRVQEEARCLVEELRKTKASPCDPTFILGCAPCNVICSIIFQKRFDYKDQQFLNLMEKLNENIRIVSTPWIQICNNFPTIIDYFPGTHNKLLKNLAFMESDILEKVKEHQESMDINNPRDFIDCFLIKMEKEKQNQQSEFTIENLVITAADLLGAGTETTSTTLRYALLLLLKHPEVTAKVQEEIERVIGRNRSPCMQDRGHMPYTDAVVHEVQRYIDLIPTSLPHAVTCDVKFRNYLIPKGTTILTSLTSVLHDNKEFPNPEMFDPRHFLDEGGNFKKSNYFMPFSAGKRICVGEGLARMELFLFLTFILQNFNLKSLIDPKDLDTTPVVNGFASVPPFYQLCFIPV
Chain of CYP3A4 (P08684 whole entry): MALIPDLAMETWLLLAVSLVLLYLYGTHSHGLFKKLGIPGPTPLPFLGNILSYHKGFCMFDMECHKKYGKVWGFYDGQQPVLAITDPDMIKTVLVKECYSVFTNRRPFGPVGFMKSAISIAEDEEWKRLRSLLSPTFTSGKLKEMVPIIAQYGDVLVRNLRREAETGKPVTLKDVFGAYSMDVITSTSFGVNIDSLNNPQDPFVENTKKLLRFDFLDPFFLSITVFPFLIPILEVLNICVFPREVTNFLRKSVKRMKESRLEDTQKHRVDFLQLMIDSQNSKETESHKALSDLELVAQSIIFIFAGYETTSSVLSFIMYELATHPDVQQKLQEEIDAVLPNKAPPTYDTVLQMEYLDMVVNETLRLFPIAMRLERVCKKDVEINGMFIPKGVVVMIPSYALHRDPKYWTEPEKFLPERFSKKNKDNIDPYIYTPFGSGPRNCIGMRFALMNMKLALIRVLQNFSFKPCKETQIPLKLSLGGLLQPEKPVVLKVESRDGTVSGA
Chain of human CYP2C9 (P11712 whole entry): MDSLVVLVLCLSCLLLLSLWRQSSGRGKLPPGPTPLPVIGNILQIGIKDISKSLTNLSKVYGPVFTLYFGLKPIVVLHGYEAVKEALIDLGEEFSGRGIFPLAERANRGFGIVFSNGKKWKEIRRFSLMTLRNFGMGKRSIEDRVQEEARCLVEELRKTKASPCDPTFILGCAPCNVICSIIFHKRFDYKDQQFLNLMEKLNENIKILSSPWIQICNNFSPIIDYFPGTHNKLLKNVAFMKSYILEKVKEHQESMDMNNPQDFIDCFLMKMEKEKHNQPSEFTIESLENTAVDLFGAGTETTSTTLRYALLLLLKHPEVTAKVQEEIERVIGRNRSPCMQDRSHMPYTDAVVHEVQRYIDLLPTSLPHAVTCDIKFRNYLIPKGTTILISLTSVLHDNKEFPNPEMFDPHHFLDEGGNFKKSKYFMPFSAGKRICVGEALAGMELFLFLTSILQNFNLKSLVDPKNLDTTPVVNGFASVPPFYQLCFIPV
Chain of Photinus pyralis (firefly) luciferase (P08659 whole entry): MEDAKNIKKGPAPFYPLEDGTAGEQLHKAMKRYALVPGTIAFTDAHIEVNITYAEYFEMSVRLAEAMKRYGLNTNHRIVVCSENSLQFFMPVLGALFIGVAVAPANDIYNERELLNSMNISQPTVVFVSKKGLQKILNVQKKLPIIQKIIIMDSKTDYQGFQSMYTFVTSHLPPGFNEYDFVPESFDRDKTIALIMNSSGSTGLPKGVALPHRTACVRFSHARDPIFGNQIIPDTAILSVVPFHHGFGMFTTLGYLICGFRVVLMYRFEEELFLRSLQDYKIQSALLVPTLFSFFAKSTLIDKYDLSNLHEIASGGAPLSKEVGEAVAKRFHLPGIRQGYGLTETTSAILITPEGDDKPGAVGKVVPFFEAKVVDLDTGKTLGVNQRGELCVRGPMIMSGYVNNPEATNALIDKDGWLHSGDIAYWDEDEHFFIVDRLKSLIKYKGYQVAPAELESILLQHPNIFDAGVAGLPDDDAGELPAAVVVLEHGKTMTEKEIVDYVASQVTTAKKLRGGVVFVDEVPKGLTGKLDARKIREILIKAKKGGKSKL
Chain of human CYP2D6 (P10635 whole entry): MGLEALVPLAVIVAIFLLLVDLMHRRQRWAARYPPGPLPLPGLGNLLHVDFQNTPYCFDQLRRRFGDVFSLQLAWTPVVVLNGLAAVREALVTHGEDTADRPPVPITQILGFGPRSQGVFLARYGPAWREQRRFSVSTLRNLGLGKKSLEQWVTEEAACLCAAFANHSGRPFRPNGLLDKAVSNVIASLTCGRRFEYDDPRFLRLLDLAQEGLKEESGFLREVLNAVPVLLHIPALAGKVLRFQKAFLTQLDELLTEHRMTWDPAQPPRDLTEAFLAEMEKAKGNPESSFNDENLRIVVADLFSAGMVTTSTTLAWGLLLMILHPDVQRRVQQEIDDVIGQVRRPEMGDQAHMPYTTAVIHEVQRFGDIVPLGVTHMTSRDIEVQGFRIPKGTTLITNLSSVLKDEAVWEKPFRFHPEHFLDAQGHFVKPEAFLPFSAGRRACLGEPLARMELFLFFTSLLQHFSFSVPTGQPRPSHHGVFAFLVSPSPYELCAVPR

**Q.** For `COc1ccc(CCN(C)CCCC(C#N)(c2cc(OC)c(OC)c(OC)c2)C(C)C)cc1OC` (stereo not shown) [Gallopamil hydrochloride], which “Luciferase IC50 (half-maximal inhibitory concentration)” value [1] is on record?
**A.** Its value is “Inactive”.

**Q.** Which results are given for `COc1ccccc1OC(=O)Oc1ccccc1OC` [Guaiacol carbonate]?
**A.** CYP2D6 AC50 (half-maximal activity concentration) (human CYP2D6): Inactive; AC50 (human CYP2C19): 9.77 µM; AC50 (human CYP2C9): 14.9 µM; CYP3A4 AC50 (half-maximal activity concentration) (CYP3A4): Inactive; AC50 (human CYP1A2): 6.41 µM

**Q.** Which “Luciferase IC50 (half-maximal inhibitory concentration)” value [1] does the source give for `CC(CNC1CCCCC1)OC(=O)c1ccccc1` (stereo not shown) [Hexylcaine hydrochloride] here?
**A.** The value was “Inactive”.

**Q.** `OCCOCCN1CCN(C(c2ccccc2)c2ccc(Cl)cc2)CC1` (stereo not shown) [Hydroxyzine hydrochloride] was tested. Which “Luciferase IC50” value [1] did it give?
**A.** The value was “Inactive”.

**Q.** Which “Luciferase IC50 (half-maximal inhibitory concentration)” value [1] does the source give for `CC(C)(C)NC(=O)[C@@H]1CN(Cc2cccnc2)CCN1C[C@@H](O)C[C@@H](Cc1ccccc1)C(=O)N[C@H]1c2ccccc2C[C@H]1O` [Indinavir sulfate] here?
**A.** The value was “Inactive”.

**Q.** Which “Luciferase IC50 (half-maximal inhibitory concentration)” value [1] does the source give for `Clc1ccc(C(Cn2ccnc2)OCc2c(Cl)cccc2Cl)c(Cl)c1` (stereo not shown) [Isoconazole nitrate] here?
**A.** The value was “Inactive”.

**Q.** Which “Luciferase IC50” value [1] does the source give for `CNCCCC12CCC(c3ccccc31)c1ccccc12` [Maprotiline hydrochloride] here?
**A.** The value was “Inactive”.

**Q.** With `CCN(CCCCOC(=O)c1ccc(OC)c(OC)c1)C(C)Cc1ccc(OC)cc1` (stereo not shown) [Mebeverine hydrochloride] as the molecule, how does the “Luciferase IC50 (half-maximal inhibitory concentration)” value [1] read?
**A.** The value was “Inactive”.

**Q.** Which “Luciferase IC50 (half-maximal inhibitory concentration)” value [1] does the source give for `CCCNC(C)(C)COC(=O)c1ccccc1` [Meprylcaine hydrochloride] here?
**A.** The value was “Inactive”.

**Q.** `CN1C[C@H](CNC(=O)OCc2ccccc2)C[C@@H]2c3cccc4c3c(cn4C)C[C@H]21` [Metergoline] was tested. Which “Luciferase IC50” value [1] did it give?
**A.** Its value is “Inactive”.

**Q.** `CC[C@@H](CO)NC(=O)[C@@H]1C=C2c3cccc4[nH]cc(c34)C[C@H]2N(C)C1` [Methergine] was tested. Which “Luciferase IC50” value [1] did it give?
**A.** The value was “Inactive”.

**Q.** Which IC50 [1] does the source give for `CN(C)c1ccc2nc3ccc(=[N+](C)C)cc-3sc2c1` [Methylene blue] here?
**A.** The IC50 was 29.1 µM.

**Q.** With `CC#C[C@]1(O)CC[C@H]2[C@@H]3CCC4=CC(=O)CCC4=C3[C@@H](c3ccc(N(C)C)cc3)C[C@@]21C` [Mifepristone] as the molecule, how does the “Luciferase IC50” value [1] read?
**A.** The value was “Inactive”.

**Q.** Which results are given for `NC(=O)Cc1cccc(C(=O)c2ccccc2)c1N` [Nepafenac]?
**A.** CYP2D6 AC50 (half-maximal activity concentration) (human CYP2D6): Inactive; AC50 (human CYP2C19; CYP2C19 AC50 (half-maximal activity concentration)): 29.9 µM; AC50 (human CYP2C9; CYP2C9 AC50 (half-maximal activity concentration)): 25.3 µM; CYP3A4 AC50 (half-maximal activity concentration) (CYP3A4): Inactive; AC50 (human CYP1A2; CYP1A2 AC50 (half-maximal activity concentration)): 14.4 µM

**Q.** For `COCCOC(=O)C1=C(C)NC(C)=C(C(=O)OC(C)C)C1c1cccc([N+](=O)[O-])c1` (stereo not shown) [Nimodipine], which “Luciferase IC50 (half-maximal inhibitory concentration)” value [1] is on record?
**A.** The value was “Inactive”.

**Q.** For `COc1cc(NC(C)CCCN)c2ncccc2c1` (stereo not shown) [Primaquine diphosphate], which “Luciferase IC50 (half-maximal inhibitory concentration)” value [1] is on record?
**A.** Its value is “Inactive”.

**Q.** Which “Luciferase IC50 (half-maximal inhibitory concentration)” value [1] does the source give for `CCCNCC(O)COc1ccccc1C(=O)CCc1ccccc1` (stereo not shown) [Propafenone hydrochloride] here?
**A.** The value was “Inactive”.

**Q.** How did the “Luciferase IC50 (half-maximal inhibitory concentration)” value [1] turn out when `O=C(c1ccc(OCCN2CCCCC2)cc1)c1c(-c2ccc(O)cc2)sc2cc(O)ccc12` [Raloxifene hydrochloride] was run?
**A.** Its value is “Inactive”.

**Q.** For `CCNc1nc(NC(C)CC)nc(OC)n1` (stereo not shown) [Secbumeton], which “CYP2D6 AC50 (half-maximal activity concentration)” value (human CYP2D6) is on record?
**A.** The value was “Inactive”.

**Q.** And the AC50 (human CYP2C19)?
**A.** Its AC50 is 26.4 µM.

**Q.** And the AC50 (human CYP2C9)?
**A.** The AC50 was 43.5 µM.

**Q.** And the “CYP3A4 AC50 (half-maximal activity concentration)” value (CYP3A4)?
**A.** The value was “Inactive”.

**Q.** What about the AC50 (human CYP1A2) of the same molecule?
**A.** The AC50 was 26.2 µM.
